Results on 1 compound are retold here after patent publication US6573253B2, “Methods for the administration of amifostine and related compounds” (MedImmune Oncology Inc., priority 1997, dated 2003).

Like-named read-outs stand apart in the source and are kept apart here.

The conditions of this series: human, in vivo.

Method: All subjects were sequestered at the study site from the evening before the administration of the first dose of study drug until the final whole blood sample was obtained.
Blood samples (5 to 7 mL each) were collected either by venipuncture or indwelling venous catheter (IVC) heparin lock. If IVC was used, it was inserted in the arm opposite the infusion site. […] For either line, the first 3 to 5 cc of blood were discarded (void volume) prior to blood collection.
To prevent further oxidation of WR-1065, PCA/EDTA was added to the samples prior to centrifugation. Because PCA/EDTA ruptures the cellular content of the blood, the samples were centrifuged for a longer period of time to prevent contamination/metabolism of the active metabolite. Consequently, only the clear supernatant (serum) was used for analysis of WR-1065. In contrast, no PCA/EDTA was added to the blood samples designated for analysis of the parent drug; therefore, plasma samples were prepared for analysis of the parent drug.
WINNONLIN, the WINDOWS version of PCNONLIN, was used for the determination of pharmacokinetic parameters for each subject following each route of administration. Non-compartmental modelling of the data was performed.
AUCs were calculated using extrapolation according to a straightline from the last non-zero point.
The AUCs were then analyzed using an analysis of variance (ANOVA) model with route, period and subject as variables. Sequence was not included in the model as this variable was uniquely determined by route and period. The confidence interval on the ratio of the subcutaneous or oral route to the intravenous route was calculated using the mean square error from the entire ANOVA model.

Take `NCCCNCCS` [WR-1065, 2-[3-aminopropylamino]ethanethiol]: the “absolute bioavailability of the active metabolite” value came to 0.53. Further, the “time after administration at which concentration fell below 5 μM, WR-1065” value (iv) is on record as “approximately 45 minutes”. The “time after administration at which concentration fell below 5 μM, WR-1065” value (sc) is “approximately 60 minutes”. Also, the “peak levels (maximum whole blood concentration)” value (male, iv) is reported as “about 23 μM”. In addition, under “male, sc”, the maximum blood levels is ~4 µM; the “time to maximum and sustained whole blood concentration” value fell in the range of 15 to 45 min.
